# Test results as given in patent US20240139188A1, “Arylamide Compounds For Treatment And Prevention Of Fungal Infections” (priority 2022, published 2024).
# Where two headings read alike, the source gives them in different places.
# Key:
# C. albicans = assay: MIC for yeasts, CLSI M27-A3; type: cell-based, Candida albicans
# chitin synthase genes = assay: Chitin synthase mRNA accumulation (RT-qPCR); conditions: wild-type strain, 1 hour exposure; not in the mutant strains
# Experimental: RNA-sequencing. cDNA synthesis and RTqPCR: All experiments were carried out in biological triplicates and conidia (10^7) were inoculated in liquid MM and A. fumigatus strains were grown for 16 hours at 37 ° C. and treated or not with different concentrations of BRI, CAS, or BRI+CAS for 1 hour. For total RNA isolation, mycelia were ground in liquid nitrogen and total RNA was extracted using TRIzol (Invitrogen), treated with RQ1 RNase-free DNase I (Promega), and purified using the RNAeasy kit (Qiagen) according to the manufacturer's instructions. RNA was quantified using a NanoDrop and Qubit fluorometer, and analyzed using an Agilent 2100 Bioanalyzer system to assess the integrity of the RNA.
# For RT-qPCR, the RNA was reverse transcribed to cDNA using the ImProm-II reverse transcription system (Promega) according to manufacturer's instructions, and the synthesized cDNA was used for real-time analysis using the SYBR green PCR master mix kit (Applied Biosystems) in the ABI 7500 Fast real-time PCR system (Applied Biosystems, Foster City, CA, USA).
# C. neoformans [1] = assay: BRI+CAS against yeasts, colony forming units
# Experimental: Combination of Brilacidin and caspofungin against yeasts: For measuring the effect of the combination BRI+CAS against yeast fungal pathogens, two methods were used: (i) metabolic activity by XTT-assay and (ii) colony forming units (CFUs). For the first method, C. neoformans, C. albicans, and C. auris 10^4 cells were inoculated in RPMI-1640 supplemented with CAS 0 to 32 μg/ml (for C. neoformans) and 0 to 1 μg/ml (for Candida spp.) or the same concentrations of CAS combined with BRI 0.625 μM (for C. neoformans), BRI 20 μM (for C. albicans), and BRI 10 μM (for C. auris). […] XTT-assays were also used for C. albicans caspofungin resistant strains but with CAS 0.5 μg/ml combined with BRI 5, 10 or 20 μM. The same experimental design was used for the CFUs determination, except that after 48 hours the cells present in the wells were plated on YPD (yeast extract 10g, peptone 20g, dextrose 20g, agar 20 g, water 1000 mL) and the plates were incubated at 30° C. for 24-48 hours for determining the survival percentage.
# C. neoformans [2] = assay: MIC for yeasts, CLSI M27-A3; type: cell-based, Cryptococcus neoformans; conditions: read-out: MIC BRI
# A. fumigatus biofilms = assay: Biofilm assay (XTT); conditions: Aspergillus fumigatus, read-out: inhibition of biofilm formation
# Experimental: Biofilm assay: To test the susceptibility of pre-formed A. fumigatus biofilms to
# VOR, CAS and to the combination of CAS+BRI and VOR+BRI, a suspension containing 10^6 conidia per mL of the wild-type strain (Δku80 pyrG^+) was prepared in liquid MM and 100 μL of it was inoculated in each well of a 96-well plate. After 24 hours of incubation at 37° C., 50 μL of fresh MM containing CAS, VOR or the combination of VOR and CAS with BRI was added to the biofilm to reach the final concentration as indicated and incubated for a further 12 hours at 37° C. Wells containing untreated conidia were used as a positive control. After, the metabolic activity of the cells was evaluated by adding 50 μL of an aqueous XTT solution (1 mg/mL of XTT and 125 μM of menadione) to each well. The plate was incubated for additional 1 hour at 37° C., centrifuged (2000 rpm, 5 minutes) and 100 μL of the supernatant was transferred to a flat-bottomed 96-well plate. The absorbance was measured at 450 nm on a plate reader (Synergy HTX Multi-Mode Reader- BioTek Instruments). The XTT assay's were performed in six replicates.
# A. fumigatus [3] = assay: Fungal burden, chemotherapeutic murine model of IPA; type: in vivo, BALB/c mice; conditions: BRI 50 mg/kg, 3 days post-infection, vs non-treated mice
# Experimental: Fungal burden: Inbred female mice (BALB/c strain; body weight, 20-22 g) were housed in vented cages containing five animals. Mice were immunosuppressed with cyclophosphamide (150 mg per kg of body weight), which was administered intraperitoneally on days −4, −1 and 2 prior to and post infection (infection day is “day 0”). Hydrocortisonacetate (200 mg/kg body weight) was injected subcutaneously on day −3. Mice (5 mice per group) were anesthetized by halothane inhalation and infected by intranasal instillation of 20 μL of 1.0×10^6 conidia of A. fumigatus Δku80 pyrG^+ (wild-type) (the viability of the administered inoculum was determined by incubating a serial dilution of the conidia on MM medium, at 37° C.). As a negative control, a group of 5 mice received PBS only. […]
# DNA quantity and quality were assessed using a NanoDrop 2000 spectrophotometer (Thermo Scientific). Quantitative real-time PCRs were performed using 400 ng of total DNA from each sample, and primers to amplify the 18S rRNA region of A. fumigatus and an intronic region of mouse GAPDH (glyceraldehyde-3-phosphate dehydrogenase). Six-point standard curves were calculated using serial dilutions of gDNA from A. fumigatus strain and the uninfected mouse lung. Fungal and mouse DNA quantities were obtained from the threshold cycle (Ct) values from an appropriate standard curve.
# [4] = tested on: A. fumigatus cell membrane potential; assay: Membrane potential determination, DiBAC4(3); type: cell-based, Aspergillus fumigatus; conditions: BRI 1 μM, 30 minutes
# Experimental: Membrane potential determination: […] Biotechnol., 2021, 14, 262-276) with modifications. […] After, the germlings were washed with sterile PBS (140 mM NaCl, 2 mM KCl, 10 mM NaHPO4, 1.8 mM KH2PO4, pH 7.4). The fluorescence was analyzed with excitation wavelength of 450-490 nm, and emission wavelength of 525-550 nm on the Observer Z1 fluorescence microscope (Carl Zeiss) using the 100× with Differential interference contrast (DIC) images. Fluorescent images were captured with an AxioCam camera (Carl Zeiss, Inc.) and processed using the Axio Vision software (version 4.8).
# A. fumigatus [5] = assay: MIC/MEC, CLSI M38-A2; type: cell-based, Aspergillus fumigatus; conditions: Aspergillus fumigatus
# CrzA:GFP = CrzA:GFP translocation to the nucleus; conditions: BRI 5 μM, 30 minutes
# Experimental: Conidia were germinated in YG medium and grown for 13 hours and then exposed or not to BRI, CAS, and BRI+CAS for 30 minutes.
# [6] = tested on: A. fumigatus null mutants; assay: Phosphatase and kinase null mutant screening; type: cell-based, Aspergillus fumigatus; conditions: for sensitivity of null mutant: BRI 20 μM; on sensitivity, BRI (20 μM): key: +: sensitivity similar to wild-type; −: more sensitive than the wild-type
# Experimental: Phosphatase and kinase null mutant screening: An A. fumigatus phosphatase deletion library encompassing 25 null mutants for phosphatase catalytic subunits (Winkelströter et al., G3 (Bethesda), 2015, 5, 1525-39) was screened for sensitivity to the combination of CAS+BRI. […] In each well a total of 200 μL of liquid MM plus conidia from the different mutants (1×10^4 conidia/mL) was incubated in the presence of BRI (20 μM).
# C. auris = assay: MIC for yeasts, CLSI M27-A3; type: cell-based, Candida auris; conditions: read-out: MIC BRI
compound,measurement,setting,value
"N=C(N)NCCCCC(=O)Nc1cc(C(F)(F)F)cc(NC(=O)c2cc(C(=O)Nc3cc(C(F)(F)F)cc(NC(=O)CCCCNC(=N)N)c3OC3CCNC3)ncn2)c1OC1CCNC1 (stereo not shown) [BRI, brilacidin]",MIC,"C. albicans; Candida albicans SC5314, read-out: MIC BRI",80 µM
same,MIC,"C. albicans; Candida albicans, read-out: MIC BRI, Candida albicans DPL1006 CAS^R (FKS1 F641L)",20 µM
same,MIC,"C. albicans; Candida albicans, read-out: MIC BRI, Candida albicans DPL1009 CAS^R (FKS1 S645Y)",20 µM
same,MIC,"C. albicans; Candida albicans, read-out: MIC BRI, Candida albicans DPL1011 CAS^R (FKS1 S645F + R1361R/H)",40 µM
same,MIC,"C. albicans; Candida albicans, C. albicans CAS-resistant isolates, read-out: BRI MICs",20 to 80 µM
same,MIC,"C. albicans; Candida albicans, C. albicans, read-out: MIC BRI",80 µM
same,chitin synthase gene expression,chitin synthase genes,induce some of these genes
same,type of activity,"C. neoformans [1]; BRI alone, C. neoformans",fungicidal
same,Mechanism,"C. neoformans [1]; Cryptococcus neoformans H99, plating after 48 hours",Fungicidal
same,MIC,C. neoformans [2]; Cryptococcus neoformans H99,2.5 µM
same,MIC,"C. neoformans [2]; Cryptococcus neoformans, C. neoformans",2.5 µM
same,inhibition at 20 µM,A. fumigatus biofilms,~10%
same,inhibition at 40 µM,A. fumigatus biofilms,~60%
same,reduction of fungal burden in the lungs,A. fumigatus [3],approximately 50%
same,fluorescent germlings (membrane depolarization),[4],5%
same,MIC,"A. fumigatus [5]; A. fumigatus CM7555 CAS^R, read-out: MIC BRI",> 80 µM
same,MIC,"A. fumigatus [5]; A. fumigatus DPL1033 CAS^R, read-out: MIC BRI",> 80 µM
same,MIC,"A. fumigatus [5]; A. fumigatus MD24053 CAS^R, read-out: MIC BRI",> 80 µM
same,MIC,"A. fumigatus [5]; A. fumigatus VOR^R clinical isolate named in c0 of the row, read-out: MIC BRI",80 µM
same,MIC,"A. fumigatus [5]; A. fumigatus WT (CEA17), read-out: MIC BRI",80 µM
same,MIC,"A. fumigatus [5]; A. fumigatus WT, read-out: MIC BRI",> 80 µM
same,MIC,"A. fumigatus [5]; A. fumigatus clinical isolate named in c0 of the row, read-out: MIC BRI",> 80 µM
same,MIC,"A. fumigatus [5]; wild-type A. fumigatus, read-out: BRI MIC",> 80 µM
same,germlings with CrzA:GFP in the nuclei,CrzA:GFP,0%
same,"sensitivity, BRI (20 μM)",[6]; Afs35 (wild-type; A1159),+
same,"sensitivity, BRI (20 μM)",[6]; CEA17 (wild-type; A1160),+
same,"sensitivity, BRI (20 μM)",[6]; ΔcalA (Afu5g09360),−
same,sensitivity of null mutant,[6]; ΔcalA,more sensitive
same,"sensitivity, BRI (20 μM)",[6]; ΔcdcA (Afu3g12250),+
same,"sensitivity, BRI (20 μM)",[6]; ΔdspA (Afu1g13040),+
same,"sensitivity, BRI (20 μM)",[6]; ΔdspB (Afu1g03540),+
same,"sensitivity, BRI (20 μM)",[6]; ΔdspD (Afu2g02760),+
same,"sensitivity, BRI (20 μM)",[6]; ΔltpA (Afu2g01880),+
same,"sensitivity, BRI (20 μM)",[6]; ΔmpkA,−
same,sensitivity of null mutant,[6]; ΔmpkA,more sensitive
same,"sensitivity, BRI (20 μM)",[6]; ΔmpkB,+
same,"sensitivity, BRI (20 μM)",[6]; ΔmpkC,+
same,"sensitivity, BRI (20 μM)",[6]; ΔnemA (Afu1g09460),+
same,"sensitivity, BRI (20 μM)",[6]; ΔpphA (Afu5g12010),+
same,"sensitivity, BRI (20 μM)",[6]; ΔppmA (Afu8g04580),+
same,"sensitivity, BRI (20 μM)",[6]; ΔppsA (Afu5g11690),+
same,"sensitivity, BRI (20 μM)",[6]; ΔpptA (Afu5g06700),+
same,"sensitivity, BRI (20 μM)",[6]; ΔppzA (Afu2g03950),+
same,"sensitivity, BRI (20 μM)",[6]; ΔpsrA (Afu1g04790),+
same,"sensitivity, BRI (20 μM)",[6]; ΔptcA (Afu1g15800),+
same,"sensitivity, BRI (20 μM)",[6]; ΔptcB (Afu1g09280),+
same,"sensitivity, BRI (20 μM)",[6]; ΔptcD (Afu5g13740),+
same,"sensitivity, BRI (20 μM)",[6]; ΔptcE (Afu2g03890),+
same,"sensitivity, BRI (20 μM)",[6]; ΔptcF (Afu1g06860),+
same,"sensitivity, BRI (20 μM)",[6]; ΔptcG (Afu5g13340),+
same,"sensitivity, BRI (20 μM)",[6]; ΔptcH (Afu4g00720),+
same,"sensitivity, BRI (20 μM)",[6]; ΔptpB (Afu3g10970),+
same,"sensitivity, BRI (20 μM)",[6]; ΔptyA (Afu6g06650),+
same,"sensitivity, BRI (20 μM)",[6]; ΔpypA (Afu4g04710),+
same,"sensitivity, BRI (20 μM)",[6]; ΔsakA,+
same,"sensitivity, BRI (20 μM)","[6]; ΔsakA, ΔmpkC",+
same,"sensitivity, BRI (20 μM)",[6]; ΔsitA (Afu6g11470),+
same,"sensitivity, BRI (20 μM)",[6]; ΔyphA (Afu4g07000),+
same,MIC,C. auris; Candida auris 467/2015,80 µM
same,MIC,C. auris; Candida auris 468/2015,80 µM
same,MIC,C. auris; Candida auris 469/2015,80 µM
same,MIC,C. auris; Candida auris 470/2015,80 µM
same,MIC,C. auris; Candida auris 471/2015,80 µM
same,MIC,"C. auris; Candidozyma auris, C. auris",80 µM
